The results in this text go back to patent publication US20030204875A1, “Novel agrobacterium-mediated plant transformation method” (priority 1999, published 2003).

Structures are written as SMILES. Like-named read-outs stand apart in the source and are kept apart here. A value given as a limit tells only on which side of the number the result lay.

Assay [1] relates to Agrobacterium (strain ABI). The format is cell-based. The arrangement: key: “No Growth” indicates there was not an increase in cell density indicating bacteriocidal or bacteriostatic property of the chemical; “Slow Growth” indicates that a slight increase in cell density was noticed and a higher level may be lethal; “Growth” indicates no effect on bacterial growth at the concentration used relative to growth in control medium. As to conditions: control, AgNO3 20 μM; twenty-four hours. How it is done:
Each of the chemicals listed in Table 26 was resuspended in MS-BMS media and added (final concentration 50 μM) to a 50 ml overnight culture of Agrobacterium (strain ABI). Twenty-four hours after inoculation the effect of the chemicals on the growth of Agrobacterium was recorded. A known bacteriocidal compound, Carbenicillin at a final concentration of 50 mg/L and AgNO3 (20 μM) were used as controls.

Assay [2] relates to T-DNA delivery to immature embryos of corn genotype H99×A188. Conditions: co-culture with 10 μM AgNO3, three days. How it is done: The Agrobacterium strain was pre-induced as described previously and three mls of pre-induced Agrobacterium suspension (A660 OD 1.0, 2.0, 3.0 and 4.0) was used. After adding the explants the Agrobacterium suspension cells, the inoculation was performed for 15 minutes. The Agrobacterium suspension was removed and embryos were placed on 1/2 MS corn co-culture medium supplemented with 10 ? M AgNO3 (final concentration). The co-culture duration was for three days in the dark. The efficiency of T-NA delivery was estimated by a transient GUS analysis three days after co-culture by incubating embryos directly in GUS staining buffer for 12-15 hours and counting the number of GUS foci per immature embryo explant (Table 20).

Assay [3] relates to immature embryos of genotype (H99×Pa 91)A188. In words: Transformation efficiency of corn with different growth inhibiting agents during co-culture. The format is cell-based. As to conditions: three days, OD 4.0. How it is done: b) Biological assay (leaf bleach assay). Leaf samples (a leaf punch) from approximately 2-week-old seedlings were placed in wells of 24-well cell culture clusters (Costar Corporation, Cambridge, Mass.). Each well was filled with 0.5 ml aqueous solution composed of 300 mg/L paromomycin (Sigma) and 100 mg/L Benlate (a fungicide made by Du Pont), 100 mg/IL Benlate alone was used as a control. Three leaf samples from the same leaf of each plant were placed in two wells containing paromomycin plus Benlate and one well containing Benlate alone, respectively. Leaf samples from non-transformed plants were used as negative controls. The samples were vacuum-infiltrated in a dessicator using an in-house vacuum system for 5 min and then the clusters were sealed tightly with parafilm before being placed under light (140 μMol m-2s-1). The results were determined after 60 hours.
Immature embryos of genotype (H99×Pa 91)A188 were isolated as described. […] The Agrobacterium strain was pre-induced as described. The inoculation was performed using a concentration of A660 OD 4.0 for 15 minutes as described. Post inoculation, Agrobacterium suspension was removed and embryos were placed on different semi-solid co-culture media supplemented with various bacteriocidal compounds. All the tissues were incubated for three days in the dark. The transformation protocol followed was as described previously (corn IE transformation) except that the 1st selection with 50 mg/L Paromomycin was replaced with 25 mg/L Paromomycin for 2 weeks and 50 mg/L Paromomycin for 2 additional weeks. Transformation efficiency was calculated based on the number of embryos producing nptII positive plants as determined by a leaf bleach assay as described earlier. Three weeks after the transformation, the quality and growth characteristics of IE-derived callus co-cultured in the presence of different growth inhibiting agents.

Assay [4] has as its system corn immature embryos, genotype LH198 X Hi-II. Conditions: 20 μM silver nitrate. The text has this: Corn genotype LH198 X Hi-II was used. Corn immature embryos were isolated as described previously. Approximately 30 immature embryos were inoculated for each treatment with Agrobacterium strain ABI harboring plasmid pMON18365 for five minutes and placed on co-culture media for two to three days. There were 4 replicates per treatment. The four treatments included:
Treatment 1: absence of growth inhibiting agent (in both inoculation and co-culture media)
Treatment 2: absence of agent in inoculation media; presence of agent (20 μM silver nitrate) in co-culture media.
Treatment 3: presence of agent (20 μM silver nitrate) in inoculation media; absent in co-culture media
Treatment 4: presence of agent (20 μM silver nitrate) in both inoculation and co-culture media
Within each treatment, five immature embryos were used for transient analysis. This was repeated across all reps within each treatment. The number of GUS spots was determined on both the scutellar surface (scutellar side up) as shown in Table 23 and the number of GUS spots was determined on the axis side of the embryos as shown in Table 24.

Assay [5] relates to T-DNA transfer (tumor induction) to Kalanchoe cells. How it is done: Transformation of BMS suspension cells was performed following the protocol described in Table 8. For transforming kalanchoe leaves, a suspension of cells from Agrobacterium strain A281 was applied after performing mechanical wounding as described in White and Nester. The Agrobacterium strain, A136 harboring a binary vector pMON25457 (FIG. 3) was used as a negative control.
During pre-induction, AgNO3 was added at two different levels (20 ? M and 40 ? M final concentration) to the pre-induction medium. The final optical density prior to the induction was adjusted to A660 (OD 0.2). Agrobacterium cells were pre-induced for 15 hours. Measurement of the optical density (measure of growth) was taken at the end of pre-induction, just prior to transformation. Agrobacterium cells pre-induced in the absence of AgNO3 were used as a control.

Assay [6] relates to Agrobacterium tumefaciens strain EHA 101. How it is done:
Three mls of pre-induced Agrobacterium suspension (A660 OD 4.0) was added to a 6-well tissue culture plate as described. After adding the explants to the Agrobacterium suspension cells, the inoculation was performed for 15 minutes. The Agrobacterium suspension was removed and the embryos were placed on semi-solid medium with or without AgNO3 (20 ? M final concentration). All the tissues were incubated for three days in the dark. The amount of Agrobacterium present was estimated at the beginning by randomly sampling immature embryos immediately after inoculation and again at the end of the co-culture period to determine the number of attached Agrobacterium cells per immature embryo explant.

For the compound `O=[N+]([O-])[O-].[Ag+]` [AgNO3, silver nitrate], in assay [1], the “Effect (on growth of Agrobacterium)” value is given as “No Growth”. Besides, the “Average number of GUS foci/explant” value is listed as 7 in assay [2] (OD660 1.0, Pre-induced); 2 in assay [2] (OD660 2.0, Not pre-induced (grown in LB)); 28 in assay [2] (OD660 2.0, Pre-induced); 39 in assay [2] (OD660 3.0, Pre-induced); less than 1 in assay [2] (OD660 4.0, Not pre-induced (grown in LB)); 66 in assay [2] (OD660 4.0, Pre-induced). The figures for the “% Transformation” value in assay [3] (20 μM in co-culture medium) and in assay [3] (50 μM in co-culture medium) were 16% and 6.3%, respectively. For the same compound, the “Average # GUS spots/embryo (axis)” value in assay [4] (Treatment 2 (inoculation)) worked out at 40.8; in assay [4] (Treatment 3 (co-culture)), 3.8; in assay [4] (Treatment 4 (both)), 8.4. Further, the “Average # GUS spots/embryo (scutellar surface)” value in assay [4] (Treatment 2 (inoculation)) is listed as 82.5; in assay [4] (Treatment 3 (co-culture)) it was 81.8; in assay [4] (Treatment 4 (both)) it was 58.9. Further, the “Results (T-DNA transfer)” value in assay [5] (A281 pre-induced with 20 μM AgNO3) and in assay [5] (A281 pre-induced with 40 μM AgNO3) was “no transfer” throughout. For the same compound, the “Effect on growth of Agrobacterium during co-culture” value in assay [6] (20 μM AgNO3, three days co-culture) is “significantly inhibited”. In addition, the “Results (fold reduction of Agrobacterium colonies/explant)” value in assay [6] (3d co-culture plus 20 μM AgNO3, versus 0d) worked out at 30 fold reduction. Besides, the “Average # of Agrobacterium Colonies/Explant” value in assay [6] (3d co-culture plus 20 μM AgNO3, 0d value 3 × 10^5 CFU) is on record as 1.0 × 10^4 CFU.
